Experimental data taken from patent US9440957B2, “Compounds and compositions for modulating EGFR Activity” (Novartis AG, priority 2012, dated 2016).
Where two headings read alike, the source gives them in different places.

Tests used:
[1] = target: human EGFR WT (NIH/3T3 cells, EGF-induced) (Homo sapiens, UniProt P00533); assay: EGFR target modulation in engineered NIH/3T3 cell lines (phospho-EGFR Y1068 AlphaLISA), EGFR WT; assay type: cell-based; conditions: engineered NIH/3T3 cells, read-out: NIH3T3 IC50 (μM) EGFR (WT)
human EGFR WT (NIH/3T3 cells, EGF-induced), sequence (P00533 25-1210): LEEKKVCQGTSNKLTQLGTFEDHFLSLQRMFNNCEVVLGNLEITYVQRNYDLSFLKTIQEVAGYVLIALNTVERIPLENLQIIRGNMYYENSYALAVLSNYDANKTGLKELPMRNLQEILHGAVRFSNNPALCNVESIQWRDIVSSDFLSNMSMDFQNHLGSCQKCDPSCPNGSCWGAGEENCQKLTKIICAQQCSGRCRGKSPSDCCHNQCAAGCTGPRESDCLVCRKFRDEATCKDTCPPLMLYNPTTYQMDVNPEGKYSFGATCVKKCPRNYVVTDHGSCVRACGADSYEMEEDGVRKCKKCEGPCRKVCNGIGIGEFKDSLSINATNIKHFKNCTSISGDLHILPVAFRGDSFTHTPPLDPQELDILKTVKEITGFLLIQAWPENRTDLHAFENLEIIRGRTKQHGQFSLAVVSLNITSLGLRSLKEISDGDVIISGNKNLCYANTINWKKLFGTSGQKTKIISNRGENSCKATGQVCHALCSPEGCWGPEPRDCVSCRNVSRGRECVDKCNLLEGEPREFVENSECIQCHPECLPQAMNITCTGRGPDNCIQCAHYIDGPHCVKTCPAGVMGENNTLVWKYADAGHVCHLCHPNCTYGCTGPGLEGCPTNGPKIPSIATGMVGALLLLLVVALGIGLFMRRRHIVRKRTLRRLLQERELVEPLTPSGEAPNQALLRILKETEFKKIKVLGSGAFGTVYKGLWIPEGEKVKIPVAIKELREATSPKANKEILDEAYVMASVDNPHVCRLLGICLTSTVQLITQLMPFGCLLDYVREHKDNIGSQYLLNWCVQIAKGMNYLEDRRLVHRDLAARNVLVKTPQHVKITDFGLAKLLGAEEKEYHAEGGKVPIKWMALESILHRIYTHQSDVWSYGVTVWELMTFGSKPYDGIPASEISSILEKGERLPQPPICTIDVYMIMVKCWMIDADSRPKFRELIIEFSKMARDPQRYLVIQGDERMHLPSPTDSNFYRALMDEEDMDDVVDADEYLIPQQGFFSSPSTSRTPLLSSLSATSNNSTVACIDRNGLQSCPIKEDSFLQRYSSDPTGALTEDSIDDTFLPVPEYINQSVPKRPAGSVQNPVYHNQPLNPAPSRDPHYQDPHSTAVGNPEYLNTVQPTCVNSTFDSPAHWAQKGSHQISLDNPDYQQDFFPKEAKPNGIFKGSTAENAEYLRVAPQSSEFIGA
Procedure: (§1) EGFR Target Modulation in Engineered NIH/3T3 Cell Lines Tissue Culture.
(§2) The cells were harvested with 0.05% Trypsin/EDTA (Hyclone #SH30236.01), re-suspended in 5% FBS/DMEM Pen/Strep without Puromycin and plated at 9,000 cells per well in 50 μl of media in a 384-well black plate with clear bottoms (Greiner #789068G). The cells were allowed to incubate overnight in a 37° C., 5% CO2 humidified tissue culture incubator. A 12-point test compound curve was prepared by serial diluting a 10 μM stock 1:3 in DMSO in a 384-well compound plate (Greiner #789201L). The serial diluted compounds were transferred to the plate containing cells by using a 50 nl Pin Head device (Perkin Elmer) and the cells were placed back in the incubator for 3 hours. Only the EGFR WT-expressing cells were induced with 50 ng/ml EGF (Preprotech #AF-100-15) for 5 minutes before lysis. […] The plates were shaken at 4° C. for 5 minutes with foil top at maximum speed. […] The plates were sealed with a foil top and frozen at −80° C. and thawed when needed.
(§3) The frozen aliquots were thawed and briefly centrifuged. All antibodies and beads were diluted in 1× AlphaLISA HiBlock Buffer (PE #AL004C). […] Goat anti-total EGFR (R&D Systems #AF231) was added and allowed to equilibrate for 1 hour at room temperature at 1 nM final concentration.
(§4) With these parameters, the IC50's for each compound in each cell line was calculated using non-linear curve fitting analysis.

[2] = target: T1, EGFR(L858R/T790M) (Homo sapiens, UniProt P00533, L858R/T790M); assay: EGFR biochemical assay (HTRF), IC50 determinations
T1 construct: purchased from Carna (GST-a.a. 669-1210)
T1 sequence (P00533 669-1210 T790M/L858R): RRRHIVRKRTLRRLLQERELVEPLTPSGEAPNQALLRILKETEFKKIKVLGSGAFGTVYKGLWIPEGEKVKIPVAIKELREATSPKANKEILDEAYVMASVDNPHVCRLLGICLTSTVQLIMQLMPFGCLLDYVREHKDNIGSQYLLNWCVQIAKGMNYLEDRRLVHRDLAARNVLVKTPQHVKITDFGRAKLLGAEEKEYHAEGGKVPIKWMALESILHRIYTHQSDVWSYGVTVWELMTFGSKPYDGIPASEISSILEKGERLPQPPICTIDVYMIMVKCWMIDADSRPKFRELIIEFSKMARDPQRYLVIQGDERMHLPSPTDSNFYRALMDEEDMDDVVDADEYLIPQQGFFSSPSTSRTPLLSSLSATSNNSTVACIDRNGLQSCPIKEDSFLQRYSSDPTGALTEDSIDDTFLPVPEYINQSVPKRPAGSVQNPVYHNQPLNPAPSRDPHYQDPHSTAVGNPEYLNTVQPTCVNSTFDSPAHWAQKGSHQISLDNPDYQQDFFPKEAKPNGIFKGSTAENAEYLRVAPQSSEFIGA
Procedure: All EGFR biochemical assays were carried out by HTRF method. […] The substrate peptide Biotin-TK-peptide was purchased from Cis-Bio. […] All reactions were carried out at room temperature in white ProxiPlate™ 384-well Plus plates (PerkinElmer) and were quenched with 5 μL of 0.2 M EDTA at 60 min. Five L of the detection reagents (2.5 ng PT66K and 0.05 μg SAXL per well) were added, the plates were incubated at room temperature for 1 h and then read in EnVision reader. […] For no-preincubation condition, the compounds were added to the assay solution containing ATP and peptide, and the reaction was initiated by addition of enzyme. For pre-incubation conditions, the compounds were added to the assay solution containing enzyme and peptide, and pre-incubated at room temperature for desired period of time, then the reaction was initiated by addition of ATP.

[3] = target: human EGFR L858R/T790M (NIH/3T3 cells) (Homo sapiens, UniProt P00533, L858R/T790M); assay: EGFR target modulation in engineered NIH/3T3 cell lines (phospho-EGFR Y1068 AlphaLISA), EGFR L858R/T790M; assay type: cell-based; conditions: engineered NIH/3T3 cells, read-out: NIH3T3 IC50 (μM) EGFR (L858R/T790M)
human EGFR L858R/T790M (NIH/3T3 cells), sequence (P00533 25-1210 T790M/L858R): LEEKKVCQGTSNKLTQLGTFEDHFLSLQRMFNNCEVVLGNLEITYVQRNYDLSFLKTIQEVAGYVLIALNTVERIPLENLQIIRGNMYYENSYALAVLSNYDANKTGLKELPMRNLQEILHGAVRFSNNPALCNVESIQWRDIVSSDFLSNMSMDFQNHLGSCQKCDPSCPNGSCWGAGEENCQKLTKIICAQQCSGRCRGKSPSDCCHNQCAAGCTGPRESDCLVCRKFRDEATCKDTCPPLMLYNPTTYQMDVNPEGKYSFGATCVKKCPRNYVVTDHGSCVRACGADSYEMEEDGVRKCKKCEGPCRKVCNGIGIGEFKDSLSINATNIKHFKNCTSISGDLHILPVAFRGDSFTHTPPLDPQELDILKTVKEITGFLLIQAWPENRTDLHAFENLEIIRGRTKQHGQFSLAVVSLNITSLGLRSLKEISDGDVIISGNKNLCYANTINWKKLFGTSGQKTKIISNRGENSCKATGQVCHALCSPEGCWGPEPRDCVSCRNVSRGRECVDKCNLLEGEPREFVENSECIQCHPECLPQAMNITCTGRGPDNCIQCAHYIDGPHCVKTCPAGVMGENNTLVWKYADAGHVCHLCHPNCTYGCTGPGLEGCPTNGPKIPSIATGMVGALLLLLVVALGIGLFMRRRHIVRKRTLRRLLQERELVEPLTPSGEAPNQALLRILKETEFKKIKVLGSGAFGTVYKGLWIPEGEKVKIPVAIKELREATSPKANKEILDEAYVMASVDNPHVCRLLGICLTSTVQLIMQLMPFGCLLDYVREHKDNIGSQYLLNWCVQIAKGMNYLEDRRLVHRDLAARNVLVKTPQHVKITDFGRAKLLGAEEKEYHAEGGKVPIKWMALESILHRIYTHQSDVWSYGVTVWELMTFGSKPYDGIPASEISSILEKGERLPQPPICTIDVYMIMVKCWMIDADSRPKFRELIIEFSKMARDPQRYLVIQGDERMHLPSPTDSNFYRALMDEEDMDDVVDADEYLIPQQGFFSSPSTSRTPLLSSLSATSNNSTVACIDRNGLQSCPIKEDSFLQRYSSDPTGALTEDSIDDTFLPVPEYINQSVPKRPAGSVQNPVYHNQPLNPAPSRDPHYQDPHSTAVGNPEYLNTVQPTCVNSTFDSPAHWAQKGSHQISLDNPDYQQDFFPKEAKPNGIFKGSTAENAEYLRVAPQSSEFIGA
Procedure: as §1, §2, §3, §4

[4] = target: human EGFR L858R (NIH/3T3 cells) (Homo sapiens, UniProt P00533, L858R); assay: EGFR target modulation in engineered NIH/3T3 cell lines (phospho-EGFR Y1068 AlphaLISA), EGFR L858R; assay type: cell-based; conditions: engineered NIH/3T3 cells, read-out: NIH3T3 IC50 (μM) EGFR (L858R)
human EGFR L858R (NIH/3T3 cells), sequence (P00533 25-1210 L858R): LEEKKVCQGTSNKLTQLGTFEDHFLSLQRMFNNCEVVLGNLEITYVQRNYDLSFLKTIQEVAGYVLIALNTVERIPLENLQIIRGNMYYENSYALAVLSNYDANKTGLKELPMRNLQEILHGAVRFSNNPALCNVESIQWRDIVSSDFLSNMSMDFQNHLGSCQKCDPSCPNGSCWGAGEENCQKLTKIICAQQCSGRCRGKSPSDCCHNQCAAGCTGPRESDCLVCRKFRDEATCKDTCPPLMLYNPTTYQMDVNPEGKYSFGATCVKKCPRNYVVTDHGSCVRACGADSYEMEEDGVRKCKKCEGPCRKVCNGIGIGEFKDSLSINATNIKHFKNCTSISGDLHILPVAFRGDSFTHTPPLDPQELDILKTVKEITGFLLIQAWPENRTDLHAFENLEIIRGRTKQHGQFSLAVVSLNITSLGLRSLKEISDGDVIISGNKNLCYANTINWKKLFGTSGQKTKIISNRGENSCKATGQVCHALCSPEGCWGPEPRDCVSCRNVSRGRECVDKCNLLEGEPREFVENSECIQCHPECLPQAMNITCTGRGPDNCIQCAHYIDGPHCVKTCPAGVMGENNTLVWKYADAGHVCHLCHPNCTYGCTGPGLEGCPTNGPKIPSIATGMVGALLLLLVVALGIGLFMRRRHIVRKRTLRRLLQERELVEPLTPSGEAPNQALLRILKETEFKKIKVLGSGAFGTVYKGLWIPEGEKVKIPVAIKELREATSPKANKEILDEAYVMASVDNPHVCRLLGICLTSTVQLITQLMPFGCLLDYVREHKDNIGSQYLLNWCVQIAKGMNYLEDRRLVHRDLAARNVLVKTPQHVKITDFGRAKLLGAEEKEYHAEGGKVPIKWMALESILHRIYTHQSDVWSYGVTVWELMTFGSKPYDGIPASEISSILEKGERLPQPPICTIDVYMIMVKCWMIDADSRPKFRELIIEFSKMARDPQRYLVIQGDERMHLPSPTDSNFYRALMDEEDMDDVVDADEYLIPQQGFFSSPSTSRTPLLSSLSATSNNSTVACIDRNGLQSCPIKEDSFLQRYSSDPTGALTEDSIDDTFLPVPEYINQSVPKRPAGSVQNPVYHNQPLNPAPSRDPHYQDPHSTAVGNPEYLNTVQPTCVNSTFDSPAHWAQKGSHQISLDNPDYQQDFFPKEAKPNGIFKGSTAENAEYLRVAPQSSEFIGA
Procedure: as §1, §2, §3, §4

[5] = EGFR (L858R/T790M) with 90 min pre-incubation, read-out: IC50 (μM) Column B
[6] = EGFR (L858R/T790M) with no pre-incubation, read-out: IC50 (μM) Column A

Row | SMILES | IC50 [1] [µM] | IC50 [2, 5] [µM] | IC50 [2, 6] [µM] | IC50 [3] [µM] | IC50 [4] [µM]
1 | Cc1cccc(C(=O)Nc2nc3cccc(C)c3n2C2CCCCN(C(=O)/C=C/CN(C)C)C2)c1 (centres unmarked) [Example 17-41] | 0.44 | < 0.001 | 0.008 | 0.004 | 0.012
2 | Cc1cccc2nc(NC(=O)c3ccccn3)n(C3CCCCN(C(=O)/C=C/CN(C)C)C3)c12 (centres unmarked) [Example 17-34] | > 10 | 0.038 | 1.05 | 0.221 | 0.53
3 | C=CC(=O)N1CCCC(n2c(NC(=O)c3cccc(C(F)(F)F)c3)nc3cnccc32)C1 (centres unmarked) [Example 17-8] | > 10 | 0.137 | 7 | 0.37 | 5.5
4 | Cc1cccc2nc(NC(=O)c3cccnn3)n(C3CCCCN(C(=O)/C=C/CN(C)C)C3)c12 (centres unmarked) [Example 17-39] | 5.2 | 0.007 | 0.12 | 0.072 | 0.221
5 | COc1cccc(C(=O)Nc2nc3cccc(C)c3n2C2CCCCN(C(=O)/C=C/CN(C)C)C2)c1 (centres unmarked) [Example 17-44] | 0.39 | < 0.001 | 0.007 | 0.003 | 0.015
6 | CN(C)C/C=C/C(=O)N1CCCCC(n2c(NC(=O)c3cccc(C(F)(F)F)c3)nc3cc(CO)cc(C#N)c32)C1 (centres unmarked) [Example 17-116] | 0.47 | < 0.001 | 0.011 | 0.008 | 0.019
7 | C=CC(=O)N1CCC[C@@H](n2c(NC(=O)c3cccc(C(F)(F)F)c3)nc3cc(CN4C[C@@H](O)[C@H](O)C4)ccc32)C1 [Example 17-120] | > 10 | 0.028 | 0.69 | 0.86 | 8.2
8 | C=CC(=O)N1CCCC[C@@H](n2c(NC(=O)c3ccccc3)nc3cc(COCCOC)cc(C)c32)C1 [Example 17-128] | 0.186 | < 0.001 | 0.007 | 0.002 | 0.006
9 | Cc1cccc2nc(NC(=O)c3ccc(F)c(Cl)c3F)n(C3CCCCN(C(=O)/C=C/CN(C)C)C3)c12 (centres unmarked) [Example 17-32] | 0.206 | < 0.001 | 0.014 | 0.004 | 0.007
10 | Cc1cccc2nc(NC(=O)c3ccnc(N(C)C)c3)n(C3CCCCN(C(=O)/C=C/CN(C)C)C3)c12 (centres unmarked) [Example 17-50] | 0.086 | < 0.001 | 0.009 | 0.009 | 0.005
11 | C=CC(=O)N1CCCC[C@@H](n2c(NC(=O)c3ccccc3)nc3cc(CN(C)CCS(C)(=O)=O)cc(C)c32)C1 [Example 17-127] | 0.099 | < 0.001 | 0.002 | 0.001 | 0.004
12 | COC1CN(C/C=C/C(=O)N2CCCC[C@@H](n3c(NC(=O)c4ccnc(C)c4)nc4cccc(Cl)c43)C2)C1 [Example 3-14] | 0.78 | < 0.001 | 0.012 | 0.012 | 0.011
13 | C=CC(=O)N1CCCC[C@@H](n2c(NC(=O)c3ccccc3)nc3cccc(COCCOC)c32)C1 [Example 17-130] | 1.41 | 0.006 | 0.119 | 0.016 | 0.094
14 | C=CC(=O)N1CCCCC(n2c(NC(=O)c3ccccc3)nc3cccc(C(=O)NCCS(C)(=O)=O)c32)C1 (centres unmarked) [Example 17-139] | > 9.1 | 0.005 | 0.147 | 0.043 | 0.305
15 | C=CS(=O)(=O)N1CCCCC(n2c(NC(=O)c3cccc(C(F)(F)F)c3)nc3cccc(C)c32)C1 (centres unmarked) [Example 10, N-(7-methyl-1-(1-(vinylsulfonyl)azepan-3-yl)-1H-benzo[d]imidazol-2-yl)-3-(trifluoromethyl)benzamide] | > 10 | 0.009 | 0.39 | 0.037 | 0.34
16 | C=CC(=O)N1CCCCC(n2c(NC(=O)c3ccccc3)nc3cccc(-c4nc(C)no4)c32)C1 (centres unmarked) [Example 17-138] | > 10 | 0.009 | 0.147 | 0.067 | 0.45
17 | Cc1cccc2nc(NC(=O)c3ccn4cncc4c3)n(C3CCCCN(C(=O)/C=C/CN(C)C)C3)c12 (centres unmarked) [Example 17-63] | 0.038 | < 0.001 | 0.003 |  | 0.003
18 | C/C=C/C(=O)N1CC(n2c(NC(=O)c3cccc(C(F)(F)F)c3)nc3cc(C)ccc32)C1 [Example 17-101] |  | 0.193 | 0.99 |  | 
19 | Cc1ncccc1C(=O)Nc1nc2cccc(C)c2n1C1CCCCN(C(=O)/C=C/CN(C)C)C1 (centres unmarked) [Example 17-62] | 2.5 | 0.006 | 0.14 |  | 0.234
20 | Cc1cccc2nc(NC(=O)c3ccnc(-n4cnnn4)c3)n(C3CCCCN(C(=O)/C=C/CN(C)C)C3)c12 (centres unmarked) [Example 17-60] | 0.012 |  |  | 0.002 | 0.002
21 | C=CC(=O)N1CCCC(n2c(NC(=O)c3cccc(C(F)(F)F)c3)nc3cc(C)ccc32)C1 (centres unmarked) [Example 17-100] |  |  |  | 0.026 | 0.34
22 | C=CC(=O)N1CCC(n2c(NC(=O)c3cccc(C(F)(F)F)c3)nc3cc(C)ccc32)C1 (centres unmarked) [Example 17-98] |  | 0.058 | 0.84 |  | 
23 | C=CC(=O)N1CCC(n2c(NC(=O)c3cccc(C(F)(F)F)c3)nc3cc(C)ccc32)CC1 [Example 17-97] |  | 0.4 | 0.204 |  | 
24 | C=CC(=O)N1CCC[C@H](n2c(NC(=O)c3cccc(C(F)(F)F)c3)nc3cc(C)ccc32)C1 [4, 21-5] |  | 0.071 | 0.41 |  | 
25 | C=CC(=O)N1CCCC(n2c(NC(=O)c3cccc(C(F)(F)F)c3)nc3cc(C)ccc32)CC1 (centres unmarked) [Example 17-107] |  | 0.38 | 0.32 |  | 
26 | C=CC(=O)N1CC(n2c(NC(=O)c3cccc(C(F)(F)F)c3)nc3cc(C)ccc32)C1 [Example 17-99] |  | 0.097 | 1.22 |  | 
27 | C=CC(=O)N1CCC[C@@H](n2c(NC(=O)c3cccc(C(F)(F)F)c3)nc3cc(C)ccc32)C1 [17-105, 21-6] |  | 0.002 | 0.1 |  | 
28 | Cc1cccc2nc(NC(=O)c3ccnc(C(F)(F)F)c3)n([C@@H]3CCCCN(C(=O)/C=C/CN(C)C)C3)c12 [8, 21-2] |  | < 0.001 | < 0.001 |  | 
29 | Cc1cccc2nc(NC(=O)c3cn4ccsc4n3)n(C3CCCCN(C(=O)/C=C/CN(C)C)C3)c12 (centres unmarked) [Example 17-51] |  | 0.048 | 1.95 | 0.65 | 0.47
